Data reported in US20250382344A1, “Soluble GLP1/GIP/NPY2 Receptor Triple Agonists” (Boehringer Ingelheim International GmH, priority 2024, published 2025).
pEC50: −log10 of the molar value. Read-outs that look alike come from different tables or passages of the source.

Key:
hGLP1R = target: T1, hGLP1R (Homo sapiens, UniProt P43220); experiment: hGLP1R CreLuc assay in 0.5% and 100% plasma (HEK-293 CRE-luciferase reporter cells); format: cell-based; settings: HEK-293 reporter cells
T1 construct: expressed in transfected cells; host or cells: HEK-293 CRE-luciferase reporter cells

[1] = Solubility in 0.1 M phosphate buffer at pH 7; format: physicochemical; settings: 0.1 M phosphate buffer at pH 7, 10 mg/mL final peptide concentration, shaking 2 hours at room temperature, peptides as TFA-salts; measured sample pH 6.5-7.0
hGIPR = target: T2, hGIPR (Homo sapiens, UniProt P48546); experiment: hGIPR CreLuc assay in 0.5% and 100% plasma (CHO CRE-luciferase reporter cells); format: cell-based
T2 construct: expressed in transfected cells; host or cells: CHO CRE-luciferase reporter cells
T2 sequence (P48546 22-466): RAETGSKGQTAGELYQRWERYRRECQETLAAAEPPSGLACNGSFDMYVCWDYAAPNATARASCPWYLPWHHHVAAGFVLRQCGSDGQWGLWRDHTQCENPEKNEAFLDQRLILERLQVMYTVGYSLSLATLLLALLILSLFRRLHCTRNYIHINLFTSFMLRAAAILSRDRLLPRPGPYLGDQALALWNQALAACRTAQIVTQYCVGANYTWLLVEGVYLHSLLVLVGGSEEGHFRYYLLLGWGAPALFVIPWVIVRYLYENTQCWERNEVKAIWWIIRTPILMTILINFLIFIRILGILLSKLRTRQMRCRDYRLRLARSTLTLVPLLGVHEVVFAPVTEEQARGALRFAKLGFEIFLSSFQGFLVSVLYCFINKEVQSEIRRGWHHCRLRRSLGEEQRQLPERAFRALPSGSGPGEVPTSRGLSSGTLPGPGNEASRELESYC

hNPY2R = target: T3, hNPY2R (Homo sapiens, UniProt P49146); experiment: hNPY2R CreLuc assay in 0.5% and 100% plasma (HEK-293 CRE-luciferase reporter cells); format: cell-based; settings: HEK-293 reporter cells
T3 construct: expressed in transfected cells; host or cells: HEK-293 CRE-luciferase reporter cells
T3 sequence (P49146 1-381): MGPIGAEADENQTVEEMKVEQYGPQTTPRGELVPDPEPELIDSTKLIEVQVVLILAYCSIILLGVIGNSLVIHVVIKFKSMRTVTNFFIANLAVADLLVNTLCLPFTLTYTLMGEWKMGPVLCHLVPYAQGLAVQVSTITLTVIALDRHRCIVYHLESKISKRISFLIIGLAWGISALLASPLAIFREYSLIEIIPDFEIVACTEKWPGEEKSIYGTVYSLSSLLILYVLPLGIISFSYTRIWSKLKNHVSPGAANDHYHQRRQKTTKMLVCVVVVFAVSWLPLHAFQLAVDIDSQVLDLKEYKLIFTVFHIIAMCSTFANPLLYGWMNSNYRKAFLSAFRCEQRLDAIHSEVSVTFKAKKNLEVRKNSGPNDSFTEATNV

[2] = 0.5% human plasma, read-out: hGLP1R 0.5% hP
[3] = 0.5% human plasma, read-out: hGIPR 0.5% hP
[4] = 0.5% human plasma, read-out: hNPY2R 0.5% hP
[5] = 100% human plasma, read-out: hNPY2R 100% hP

T1 sequence (P43220 24-463): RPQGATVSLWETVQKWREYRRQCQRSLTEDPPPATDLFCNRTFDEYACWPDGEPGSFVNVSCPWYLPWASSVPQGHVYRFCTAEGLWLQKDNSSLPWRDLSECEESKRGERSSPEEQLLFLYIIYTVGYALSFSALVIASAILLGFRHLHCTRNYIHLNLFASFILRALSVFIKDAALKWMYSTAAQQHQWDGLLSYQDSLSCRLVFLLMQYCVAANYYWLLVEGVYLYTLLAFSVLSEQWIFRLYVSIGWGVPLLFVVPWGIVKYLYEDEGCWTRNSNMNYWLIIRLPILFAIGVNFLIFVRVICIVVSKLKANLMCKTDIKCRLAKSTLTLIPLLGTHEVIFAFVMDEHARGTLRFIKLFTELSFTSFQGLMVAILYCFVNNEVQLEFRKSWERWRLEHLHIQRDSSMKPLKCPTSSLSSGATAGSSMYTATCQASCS

`CC[C@H](C)[C@H](NC(=O)[C@H](CC(C)C)NC(=O)[C@H](Cc1c[nH]cn1)NC(=O)[C@H](CCCNC(=N)N)NC(=O)[C@@H](NC(=O)[C@H](Cc1ccccc1)NC(=O)[C@H](CCC(=O)O)NC(=O)C(C)(C)NC(=O)[C@H](CCC(N)=O)NC(=O)[C@H](C)NC(=O)[C@H](CCC(N)=O)NC(=O)[C@H](CCCCN)NC(=O)[C@H](CCC(=O)O)NC(=O)[C@H](CC(C)C)NC(=O)C(C)(C)NC(=O)[C@@H](NC(=O)[C@H](CO)NC(=O)[C@H](Cc1ccc(O)cc1)NC(=O)[C@H](CC(=O)O)NC(=O)[C@H](CO)NC(=O)[C@@H](NC(=O)[C@H](Cc1ccccc1)NC(=O)[C@@H](NC(=O)CNC(=O)[C@H](CCC(=O)O)NC(=O)C(C)(C)NC(=O)[C@@H](N)Cc1ccc(O)cc1)[C@@H](C)O)[C@@H](C)O)[C@@H](C)CC)C(C)C)C(=O)N[C@@H](CC(N)=O)C(=O)N[C@@H](CCCCNC(=O)CCCCCNC(=O)CC[C@H](NC(=O)CC[C@H](NC(=O)CC[C@H](NC(=O)CC[C@H](NC(=O)CC[C@H](NC(=O)CCCCCCCCCCCCCCCCC(=O)O)C(=O)O)C(=O)O)C(=O)O)C(=O)O)C(=O)O)C(=O)NC(C)(C)C(=O)N[C@H](C(=O)N[C@@H](CCCNC(=N)N)C(=O)N[C@@H](CCC(N)=O)C(=O)N[C@@H](CCCNC(=N)N)C(=O)N[C@@H](Cc1ccc(O)cc1)C(N)=O)[C@@H](C)O` [Compound 14, Y-Aib-E-G-T-F-T-S-D-Y-S-I-Aib-L-E-K-Q-A-Q-Aib-E-F-V-R-H-L-I-N-K(1,3)-Aib-T-R-Q-R-Y-NH2.C18DA-gGlu-gGlu-gGlu-gGlu-gGlu-AHX(1,2)] gave a pEC50 (hGLP1R; [2]) of 9.52, a pEC50 (hGLP1R; 100% human plasma, read-out: hGLP1R 100% hP) of 9.05 and a solubility at 2 h [1] of 4800 µg/mL. The pEC50 (hGIPR; [3]) was 10.00, the pEC50 (hGIPR; 100% human plasma, read-out: hGIPR 100% hP) was 8.21 and the pEC50 (hNPY2R; [4]) was 7.77. It also gave a pEC50 (hNPY2R; [5]) of 6.41.
Work on `CC[C@H](C)[C@H](NC(=O)[C@H](CC(C)C)NC(=O)[C@H](Cc1c[nH]cn1)NC(=O)[C@H](CCCNC(=N)N)NC(=O)[C@@H](NC(=O)[C@H](Cc1ccccc1)NC(=O)[C@H](C)NC(=O)C(C)(C)NC(=O)[C@H](CCC(N)=O)NC(=O)[C@H](C)NC(=O)[C@H](CCC(N)=O)NC(=O)[C@H](CCCCN)NC(=O)[C@H](CCC(=O)O)NC(=O)[C@H](CC(C)C)NC(=O)C(C)(C)NC(=O)[C@@H](NC(=O)[C@H](CO)NC(=O)[C@H](Cc1ccc(O)cc1)NC(=O)[C@H](CC(=O)O)NC(=O)[C@H](CO)NC(=O)[C@@H](NC(=O)[C@H](Cc1ccccc1)NC(=O)[C@@H](NC(=O)CNC(=O)[C@H](CCC(=O)O)NC(=O)C(C)(C)NC(=O)[C@@H](N)Cc1ccc(O)cc1)[C@@H](C)O)[C@@H](C)O)[C@@H](C)CC)C(C)C)C(=O)N[C@@H](CC(N)=O)C(=O)N[C@@H](CCCCNC(=O)COCCOCCNC(=O)CC[C@H](NC(=O)CC[C@H](NC(=O)CC[C@H](NC(=O)CC[C@H](NC(=O)CC[C@H](NC(=O)CC[C@H](NC(=O)CCCCCCCCCCCCCCCCC(=O)O)C(=O)O)C(=O)O)C(=O)O)C(=O)O)C(=O)O)C(=O)O)C(=O)NC(C)(C)C(=O)N[C@H](C(=O)N[C@@H](CCCNC(=N)N)C(=O)N[C@@H](CCC(N)=O)C(=O)N[C@@H](CCCNC(=N)N)C(=O)N[C@@H](Cc1ccc(O)cc1)C(N)=O)[C@@H](C)O` [Compound 47, Y-Aib-E-G-T-F-T-S-D-Y-S-I-Aib-L-E-K-Q-A-Q-Aib-A-F-V-R-H-L-I-N-K(1,3)-Aib-T-R-Q-R-Y-NH2.C18DA-gGlu-gGlu-gGlu-gGlu-gGlu-gGlu-OEG(1,2)] yielded a pEC50 (hGLP1R; [2]) of 9.10, a solubility at 2 h [1] of 10000 µg/mL and a pEC50 (hGIPR; [3]) of 9.52. The pEC50 (hNPY2R; [4]) was 7.70.
With `CC[C@H](C)[C@H](NC(=O)[C@H](CC(C)C)NC(=O)[C@H](CCC(N)=O)NC(=O)[C@H](CCCNC(=N)N)NC(=O)[C@@H](NC(=O)[C@H](Cc1ccccc1)NC(=O)[C@H](C)NC(=O)C(C)(C)NC(=O)[C@H](CCC(N)=O)NC(=O)[C@H](C)NC(=O)[C@H](CCC(N)=O)NC(=O)[C@H](CCCCN)NC(=O)[C@H](CCC(=O)O)NC(=O)[C@H](CC(C)C)NC(=O)C(C)(C)NC(=O)[C@@H](NC(=O)[C@H](CO)NC(=O)[C@H](Cc1ccc(O)cc1)NC(=O)[C@H](CC(=O)O)NC(=O)[C@H](CO)NC(=O)[C@@H](NC(=O)[C@H](Cc1ccccc1)NC(=O)[C@@H](NC(=O)CNC(=O)[C@H](CCC(=O)O)NC(=O)C(C)(C)NC(=O)[C@@H](N)Cc1ccc(O)cc1)[C@@H](C)O)[C@@H](C)O)[C@@H](C)CC)C(C)C)C(=O)N[C@@H](CC(N)=O)C(=O)N[C@@H](CCCCNC(=O)CC[C@H](NC(=O)CC[C@H](NC(=O)CC[C@H](NC(=O)CC[C@H](NC(=O)CC[C@H](NC(=O)CCCCCCCCCCCCCCCCC(=O)O)C(=O)O)C(=O)O)C(=O)O)C(=O)O)C(=O)O)C(=O)NC(C)(C)C(=O)N[C@H](C(=O)N[C@@H](CCCNC(=N)N)C(=O)N[C@@H](CCC(N)=O)C(=O)N[C@@H](CCCNC(=N)N)C(=O)N[C@@H](Cc1ccc(O)cc1)C(N)=O)[C@@H](C)O` [Compound 50, Y-Aib-E-G-T-F-T-S-D-Y-S-I-Aib-L-E-K-Q-A-Q-Aib-A-F-V-R-Q-L-I-N-K(1,3)-Aib-T-R-Q-R-Y-NH2.C18DA-gGlu-gGlu-gGlu-gGlu-gGlu(1,2)] the pEC50 (hGLP1R; [2]) was 9.15, the solubility at 2 h [1] was 4500 µg/mL and the pEC50 (hGIPR; [3]) was 9.15. For the same compound, the pEC50 (hNPY2R; [5]) was 6.28.
`CC[C@H](C)[C@H](NC(=O)[C@H](CC(C)C)NC(=O)[C@H](Cc1c[nH]cn1)NC(=O)[C@H](CCCNC(=N)N)NC(=O)[C@@H](NC(=O)[C@H](Cc1ccccc1)NC(=O)[C@H](CCC(=O)O)NC(=O)C(C)(C)NC(=O)[C@H](CCC(N)=O)NC(=O)[C@H](C)NC(=O)[C@H](CCC(=O)O)NC(=O)[C@H](CCC(=O)O)NC(=O)[C@H](CCC(=O)O)NC(=O)[C@H](CC(C)C)NC(=O)C(C)(C)NC(=O)[C@@H](NC(=O)[C@H](CO)NC(=O)[C@H](Cc1ccc(O)cc1)NC(=O)[C@H](CC(=O)O)NC(=O)[C@H](CO)NC(=O)[C@@H](NC(=O)[C@H](Cc1ccccc1)NC(=O)[C@@H](NC(=O)CNC(=O)[C@H](CCC(=O)O)NC(=O)C(C)(C)NC(=O)[C@@H](N)Cc1ccc(O)cc1)[C@@H](C)O)[C@@H](C)O)[C@@H](C)CC)C(C)C)C(=O)N[C@@H](CC(N)=O)C(=O)N[C@@H](CCCCNC(=O)CC[C@H](NC(=O)CC[C@H](NC(=O)CC[C@H](NC(=O)CC[C@H](NC(=O)CCCCCCCCCCCCCCCCC(=O)O)C(=O)O)C(=O)O)C(=O)O)C(=O)O)C(=O)NC(C)(C)C(=O)N[C@H](C(=O)N[C@@H](CCCNC(=N)N)C(=O)N[C@@H](CCC(N)=O)C(=O)N[C@@H](CCCNC(=N)N)C(=O)N[C@@H](Cc1ccc(O)cc1)C(N)=O)[C@@H](C)O` [Compound 64, Y-Aib-E-G-T-F-T-S-D-Y-S-I-Aib-L-E-E-E-A-Q-Aib-E-F-V-R-H-L-I-N-K(1,3)-Aib-T-R-Q-R-Y-NH2.C18DA-gGlu-gGlu-gGlu-gGlu(1,2)] showed a pEC50 (hGLP1R; [2]) of 9.30, a solubility at 2 h [1] of 4800 µg/mL and a pEC50 (hGIPR; [3]) of 9.30. It also gave a pEC50 (hNPY2R; [4]) of 6.79.
Work on `CC[C@H](C)[C@H](NC(=O)[C@H](CC(C)C)NC(=O)[C@H](Cc1c[nH]cn1)NC(=O)[C@H](CCCNC(=N)N)NC(=O)[C@@H](NC(=O)[C@H](Cc1ccccc1)NC(=O)[C@H](C)NC(=O)C(C)(C)NC(=O)[C@H](CCC(N)=O)NC(=O)[C@H](C)NC(=O)[C@H](CCC(N)=O)NC(=O)[C@H](CCC(N)=O)NC(=O)[C@H](CC(=O)O)NC(=O)[C@H](CC(C)C)NC(=O)C(C)(C)NC(=O)[C@@H](NC(=O)[C@H](CO)NC(=O)[C@H](Cc1ccc(O)cc1)NC(=O)[C@H](CC(=O)O)NC(=O)[C@H](CO)NC(=O)[C@@H](NC(=O)[C@H](Cc1ccccc1)NC(=O)[C@@H](NC(=O)CNC(=O)[C@H](CCC(=O)O)NC(=O)C(C)(C)NC(=O)[C@@H](N)Cc1ccc(O)cc1)[C@@H](C)O)[C@@H](C)O)[C@@H](C)CC)C(C)C)C(=O)N[C@@H](CC(N)=O)C(=O)N[C@@H](CCCCNC(=O)[C@@H](N)CCCCNC(=O)CC[C@H](NC(=O)CC[C@H](NC(=O)CC[C@H](NC(=O)CC[C@H](NC(=O)CC[C@H](NC(=O)CCCCCCCCCCCCCCCCC(=O)O)C(=O)O)C(=O)O)C(=O)O)C(=O)O)C(=O)O)C(=O)NC(C)(C)C(=O)N[C@H](C(=O)N[C@@H](CCCNC(=N)N)C(=O)N[C@@H](CCC(N)=O)C(=O)N[C@@H](CCCNC(=N)N)C(=O)N[C@@H](Cc1ccc(O)cc1)C(N)=O)[C@@H](C)O` [Compound 70, Y-Aib-E-G-T-F-T-S-D-Y-S-I-Aib-L-D-Q-Q-A-Q-Aib-A-F-V-R-H-L-I-N-K(1,3)-Aib-T-R-Q-R-Y-NH2.C18DA-gGlu-gGlu-gGlu-gGlu-gGlu-eLys(1,2)] yielded a pEC50 (hGLP1R; [2]) of 9.70, a solubility at 2 h [1] of 9100 µg/mL and a pEC50 (hGIPR; [3]) of 9.70. It also gave a pEC50 (hNPY2R; [5]) of 6.92.
